From patent US11246929B2, “Combination of a protein kinase inhibitor and an additional chemotherapeutic agent” (Merck Patent GmbH, priority 2016, dated 2022)

Key:
[1] = test system: NCI-H460 xenograft; type: in vivo
[2] = test system: LoVo colon carcinoma xenografts; assay: Single agent efficacy, ATM pathway deficient LoVo xenograft; type: in vivo, mouse
Description: We tested the effect of Compound 1 on the growth of established LoVo colon carcinoma xenografts that are known to be deficient in ATM pathway function due to mutation in the MRE11 protein.

[3] = biological target: T1, DNA-PK (p-Ser2056) (Homo sapiens, UniProt P78527); assay: IR-induced DNA-PK phosphorylation in tumor tissue, ELISA, FaDu xenograft; type: in vivo; conditions: IR 50 Gy
T1 construct: from tissue; host or cells: human tumor xenografts (FaDu, HCT116, WM164) grown in mice
Description: Following the induction of DSB by radiation therapy or other DNA damaging agents, the catalytic subunit of DNA-PK (DNA-PKc) is autophosphorylated at several serine and threonine residues. Ser2056 is one of the most prominent and best studied autophosphorylation sites. Because Ser2056 phosphorylation (p-Ser2056) correlated well with DNA-PK activation state it was chosen as the pharmacodynamics (PD) biomarker. Two different assay formats were established to measure p-Ser2056 in tumor tissue: ELISA and MSD format. In order to detect sequence reliable signal, IR was used at 50 Gy for the ELISA assay and 10 Gy for the more sensitive MSD assay.

[4] = test system: HCT15; assay: cells; conditions: Homo sapiens, HCT-15, read-out: GI50 of etoposide (±Compound 1)
[5] = test system: JIMT1; assay: Single agent activity, panel of 81 cancer cell lines plus PBMC; type: cell-based; conditions: Homo sapiens, JIMT-1

Row | GI50 [4] [nM] | GI50 [5] [nM] | Structure (SMILES) | tumor response ([1]; 6 weeks IR (60 Gy total) + Compound 1 25 and 50 mg/kg po) | tumor volume vs starting volume ([1]; 6 weeks IR + 50 mg/kg, 42 days of treatment plus 68 days observation) | tolerability ([1]; 6 weeks IR + Compound 1) | tumor growth suppression ([2]; 150 mg/kg, three weeks) | tumor growth inhibition ([2]; three week administration) | inhibition of IR-induced DNA-PK phosphorylation (Ser2056) [3]
1 |  |  | COc1ccc([C@@H](O)c2cc(-c3ncnc4cc(N5CCOCC5)ccc34)c(F)cc2Cl)nn1 [Compound 1, (S)-[2-chloro-4-fluoro-5-(7-morpholin-4-yl-quinazolin-4-yl)-phenyl]-(6-methoxy-pyridazin-3-yl)-methanol] | regressed during the treatment and observation period up to approximately day 90 | did not exceed their starting volume | generally well tolerated | nearly complete growth suppression | dose-dependent tumor growth inhibition | Dose-dependent inhibition
2 | 1470 | > 10000 | COc1cc([C@@H]2c3cc4c(cc3[C@@H](O[C@@H]3O[C@@H]5CO[C@@H](C)O[C@H]5[C@H](O)[C@H]3O)[C@H]3COC(=O)[C@H]23)OCO4)cc(OC)c1O [Etoposide] |  |  |  |  |  | 
